From US20250312469A1 (CANGET BIOTEKPHARMA, priority 2024, published 2025)

How the values were obtained:
DU145 xenografts = test: DU145 xenograft tumor model; settings: 8 mg/kg oral, weekly×4
in vivo = settings: SCID, mouse, po
USP2a = target: T1, USP2a (Homo sapiens, UniProt O75604); test: USP2a deubiquitinase in vitro reconstitution assay; settings: 50 nM FL118; polyUb MdmX
T1 sequence (O75604 1-605): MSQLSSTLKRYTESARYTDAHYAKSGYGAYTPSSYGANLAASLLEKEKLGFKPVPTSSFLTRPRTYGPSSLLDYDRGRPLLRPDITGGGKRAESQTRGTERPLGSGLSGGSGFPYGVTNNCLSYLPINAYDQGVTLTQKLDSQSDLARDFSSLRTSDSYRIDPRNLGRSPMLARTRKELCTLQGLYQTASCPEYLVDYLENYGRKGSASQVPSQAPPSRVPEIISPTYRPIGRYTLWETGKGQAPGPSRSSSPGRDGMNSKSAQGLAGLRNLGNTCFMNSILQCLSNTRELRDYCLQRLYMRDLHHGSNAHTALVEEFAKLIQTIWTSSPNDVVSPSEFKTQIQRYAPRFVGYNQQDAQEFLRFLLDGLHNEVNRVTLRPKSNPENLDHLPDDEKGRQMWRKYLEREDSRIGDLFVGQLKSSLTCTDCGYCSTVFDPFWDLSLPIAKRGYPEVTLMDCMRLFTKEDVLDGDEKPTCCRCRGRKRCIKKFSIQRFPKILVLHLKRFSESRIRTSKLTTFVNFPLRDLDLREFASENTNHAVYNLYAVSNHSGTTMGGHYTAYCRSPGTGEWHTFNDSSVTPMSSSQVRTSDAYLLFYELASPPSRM

ABCG2/BCRP = target: T2, ABCG2/BCRP (Homo sapiens, UniProt Q9UNQ0); test: in vitro; settings: for recovery at 120 min, 1 µM: Caco-2, pH 7.4, Recovery (%)
T2 sequence (Q9UNQ0 1-655): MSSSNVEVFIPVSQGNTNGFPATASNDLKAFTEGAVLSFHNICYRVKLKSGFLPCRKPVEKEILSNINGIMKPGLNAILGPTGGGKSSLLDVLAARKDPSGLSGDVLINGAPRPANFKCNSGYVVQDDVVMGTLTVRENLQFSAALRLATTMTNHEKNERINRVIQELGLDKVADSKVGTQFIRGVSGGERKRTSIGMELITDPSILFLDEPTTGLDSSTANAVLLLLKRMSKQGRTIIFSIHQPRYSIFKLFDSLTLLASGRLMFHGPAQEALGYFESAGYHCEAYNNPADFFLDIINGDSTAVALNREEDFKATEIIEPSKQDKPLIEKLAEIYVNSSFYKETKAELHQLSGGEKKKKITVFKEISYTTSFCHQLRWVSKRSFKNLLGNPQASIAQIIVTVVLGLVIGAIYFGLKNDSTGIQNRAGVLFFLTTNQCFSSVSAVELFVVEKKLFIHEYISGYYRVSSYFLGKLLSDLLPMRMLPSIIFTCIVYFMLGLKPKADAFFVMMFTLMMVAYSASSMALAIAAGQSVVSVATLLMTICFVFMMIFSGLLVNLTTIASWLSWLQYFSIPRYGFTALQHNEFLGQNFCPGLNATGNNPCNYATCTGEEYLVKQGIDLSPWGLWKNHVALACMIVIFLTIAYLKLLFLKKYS

Question: What does the source list for CCC1(O)C(=O)OCc2c1cc1n(c2=O)Cc2cc3cc4c(cc3nc2-1)OCO4 (stereo not drawn) [FL118]?
Answer: antitumor efficacy (DU145 xenografts): well inhibited; MTD at 4 weekly doses (in vivo): ~10 mg/kg; USP2a deubiquitinase activity (USP2a): inhibited USP2a deubiquitinase activity; Papp A→B at 120 min, 1 μM (ABCG2/BCRP; Caco-2, pH 7.4, Papp AVG, Caco-2, A-to-B, first FL118 entry (without Ko143)): 10.7 ×10⁻⁶ cm/s; Papp A→B at 120 min, 1 μM (ABCG2/BCRP; Caco-2, pH 7.4, Papp R1, Caco-2, A-to-B, first FL118 entry (without Ko143)): 11.2 ×10⁻⁶ cm/s; Papp A→B at 120 min, 1 μM (ABCG2/BCRP; Caco-2, pH 7.4, Papp R2, Caco-2, A-to-B, first FL118 entry (without Ko143)): 10.3 ×10⁻⁶ cm/s; recovery at 120 min, 1 µM (ABCG2/BCRP; Caco-2, A-to-B, first FL118 entry (without Ko143)): 57%; recovery at 120 min, 1 µM (ABCG2/BCRP; Caco-2, A-to-B, second FL118 entry (presumably with Ko143)): 57%; recovery at 120 min, 1 µM (ABCG2/BCRP; Caco-2, B-to-A, second FL118 entry (presumably with Ko143)): 66%
